Data taken from US10149478B2, “Biologically active formulation” (Endura S.P.A., priority 2005, dated 2018).

Test system: Bemisia tabaci (whitely) biotype B
Experiment: Leaf dip bioassay, mortality assay for insecticide compounds (Example 20)
Format: in vivo
Details: for LC50% a.i. (*): quantity of pure insecticide achieving 50% mortality; for resistance factor: relative to non-resistant insects
Protocol: The “leaf dip bioassay” used for testing the activity of insecticides against Bemisia tabaci (whitely) biotype B, was similar to that described by Cahill, M et al, Bull. Entomol. Res. 85, 181-187, 1995.
Cotton plants (Gossypium hirsutum L.) were grown without any exposure to the insecticides. The leaves were cut up into disc shapes and immersed in an aqueous solution of insecticide containing 0.01% of Agral then left to dry at 25° C.
Control leaves were immersed in Agral and distilled water only.
About 20 adult insects were placed onto the small discs of treated cotton leaf.
The insects were allowed to feed and maximum mortality was evaluated at 24 and 48 hours.
LC50% a.i. and LC99% a.i indicate the quantity of active ingredient (i.e pure insecticide) able to achieve mortality for 50% and 99% of the insects tested.

[1] = adults on treated cotton leaf discs, maximum mortality evaluated at 24 and 48 hours

Structure (SMILES)	LC50% a.i. (*) [1]	resistance factor	LC99% a.i. (*) (quantity of pure insecticide achieving 99% mortality, adults on treated cotton leaf discs, maximum mortality evaluated at 24 and 48 hours)
O=[N+]([O-])NC1=NCCN1Cc1ccc(Cl)nc1 [Imidacloprid]	4.7 ppm	2336 times	
C/C(=N\C#N)N(C)Cc1ccc(Cl)nc1 [Acetamiprid]	0.00038 ppm	21 times	0.098 ppm
